Literature values, collected in patent US8728489B2, “Immunotherapy for chronic hepatitis C virus infection” (priority 2008, dated 2014).

Legend:
[1] = in vivo

Q: Which results are given for `NC(=O)c1ncn([C@@H]2O[C@H](CO)[C@@H](O)[C@H]2O)n1` [Ribavirin, 1-(beta)-D-ribofuranosyl-1H-1,2,4-triazole-3-carboxamide]?
A: patients with hemolytic anemia [1]: 20-30%; solubility in anhydrous alcohol: slightly soluble; solubility in water: freely soluble
